Measurements published in ChEMBL document CHEMBL1201862, “PubChem BioAssay data set” (2004).
Activity calls are given as the source filed them. Cut-off read from the data, not from the text of the source, for most assays here: actives have a measured IC50 and inactives only a lower limit.

What was measured:
Mu-type opioid receptor = Mu-type opioid receptor (Homo sapiens, UniProt P35372); assay: Counterscreen for agonists of heterodimerization of the mu 1 (OPRM1) and delta 1 (OPRD1) opioid receptors: Luminescence-based cell-based high throughput dose response assay to identify agonists of OPRM1 homodimerization.; format: functional;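 note: U2OS cells expressing OPRM1 and beta-arrestin as split beta-galactosidase partners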
Chain of Mu-type opioid receptor (P35372 whole entry): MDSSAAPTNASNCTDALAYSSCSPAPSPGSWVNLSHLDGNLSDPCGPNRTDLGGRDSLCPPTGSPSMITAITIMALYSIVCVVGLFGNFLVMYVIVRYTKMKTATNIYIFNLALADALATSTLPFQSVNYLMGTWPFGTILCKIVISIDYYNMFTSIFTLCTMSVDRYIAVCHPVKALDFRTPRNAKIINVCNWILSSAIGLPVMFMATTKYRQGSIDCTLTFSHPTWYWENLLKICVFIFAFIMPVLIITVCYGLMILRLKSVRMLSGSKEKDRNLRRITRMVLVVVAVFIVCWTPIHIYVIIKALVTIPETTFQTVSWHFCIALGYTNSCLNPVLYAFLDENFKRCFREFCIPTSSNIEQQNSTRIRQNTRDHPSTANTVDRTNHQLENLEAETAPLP

Caspase-3 = target: T1, Caspase-3 (Homo sapiens, UniProt P42574); format: functional;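 note: Dose-response selectivity test against caspase-3 for candidate inhibitors of sentrin-specific proteases (SENPs)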
T1 sequence (P42574 whole entry): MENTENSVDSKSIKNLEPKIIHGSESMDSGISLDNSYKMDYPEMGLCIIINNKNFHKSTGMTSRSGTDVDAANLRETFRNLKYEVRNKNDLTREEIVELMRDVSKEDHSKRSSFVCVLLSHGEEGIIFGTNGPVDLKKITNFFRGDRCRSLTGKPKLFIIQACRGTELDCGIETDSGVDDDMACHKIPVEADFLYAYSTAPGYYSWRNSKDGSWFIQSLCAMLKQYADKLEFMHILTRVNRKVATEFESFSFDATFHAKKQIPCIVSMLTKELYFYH

SUMO E1/E2 = SUMO E1/E2 (Homo sapiens, UniProt P63279+Q9UBE0+Q9UBT2); assay: SAR analysis of SUMOylation using HTRF in an in-Vitro dose response assay. [Related pubchem assays (depositor defined):AID2006, AID2011, AID2018, AID2069, AID2658]; format: functional
Chain of SUMO E1/E2 (Q9UBE0 whole entry): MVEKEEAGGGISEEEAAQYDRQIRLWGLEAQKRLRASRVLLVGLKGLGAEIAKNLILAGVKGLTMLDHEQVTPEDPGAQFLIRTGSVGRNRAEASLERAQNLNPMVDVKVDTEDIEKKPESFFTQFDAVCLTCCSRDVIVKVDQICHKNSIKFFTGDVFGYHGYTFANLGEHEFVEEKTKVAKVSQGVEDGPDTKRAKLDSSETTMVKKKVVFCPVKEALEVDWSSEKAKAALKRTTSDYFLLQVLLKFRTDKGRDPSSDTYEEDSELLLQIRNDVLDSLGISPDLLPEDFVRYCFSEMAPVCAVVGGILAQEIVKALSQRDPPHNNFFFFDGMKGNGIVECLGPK
Chain of SUMO E1/E2 (Q9UBT2 whole entry): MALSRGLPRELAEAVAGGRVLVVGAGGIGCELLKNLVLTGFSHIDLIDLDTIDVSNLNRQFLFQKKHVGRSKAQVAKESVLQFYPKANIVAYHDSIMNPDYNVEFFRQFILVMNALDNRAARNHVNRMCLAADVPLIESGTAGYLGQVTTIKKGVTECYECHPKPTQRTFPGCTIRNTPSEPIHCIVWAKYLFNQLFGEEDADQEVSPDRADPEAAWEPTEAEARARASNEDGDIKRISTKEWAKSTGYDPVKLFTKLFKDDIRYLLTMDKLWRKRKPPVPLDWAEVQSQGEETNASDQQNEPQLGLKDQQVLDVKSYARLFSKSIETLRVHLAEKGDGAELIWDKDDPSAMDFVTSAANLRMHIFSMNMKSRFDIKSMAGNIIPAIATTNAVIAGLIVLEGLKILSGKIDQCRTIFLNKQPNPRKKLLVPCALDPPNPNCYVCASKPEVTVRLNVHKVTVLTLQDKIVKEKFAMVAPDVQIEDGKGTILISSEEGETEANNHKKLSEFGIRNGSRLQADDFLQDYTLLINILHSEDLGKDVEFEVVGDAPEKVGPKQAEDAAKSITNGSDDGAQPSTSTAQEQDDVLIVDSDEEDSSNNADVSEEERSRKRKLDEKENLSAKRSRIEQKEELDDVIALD
Chain of SUMO E1/E2 (P63279 whole entry): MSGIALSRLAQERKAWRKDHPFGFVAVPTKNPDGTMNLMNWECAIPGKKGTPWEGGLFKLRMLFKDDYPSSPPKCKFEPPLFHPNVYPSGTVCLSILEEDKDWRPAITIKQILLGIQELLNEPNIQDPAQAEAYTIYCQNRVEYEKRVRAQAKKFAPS

[1] = target: T2, Sentrin-specific protease 7 (Homo sapiens, UniProt Q9BQF6); format: functional;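 note: Luminescence-based dose-response confirmation of ultra-high-throughput screening hits, measuring inhibition of SENP7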
T2 sequence (Q9BQF6 whole entry): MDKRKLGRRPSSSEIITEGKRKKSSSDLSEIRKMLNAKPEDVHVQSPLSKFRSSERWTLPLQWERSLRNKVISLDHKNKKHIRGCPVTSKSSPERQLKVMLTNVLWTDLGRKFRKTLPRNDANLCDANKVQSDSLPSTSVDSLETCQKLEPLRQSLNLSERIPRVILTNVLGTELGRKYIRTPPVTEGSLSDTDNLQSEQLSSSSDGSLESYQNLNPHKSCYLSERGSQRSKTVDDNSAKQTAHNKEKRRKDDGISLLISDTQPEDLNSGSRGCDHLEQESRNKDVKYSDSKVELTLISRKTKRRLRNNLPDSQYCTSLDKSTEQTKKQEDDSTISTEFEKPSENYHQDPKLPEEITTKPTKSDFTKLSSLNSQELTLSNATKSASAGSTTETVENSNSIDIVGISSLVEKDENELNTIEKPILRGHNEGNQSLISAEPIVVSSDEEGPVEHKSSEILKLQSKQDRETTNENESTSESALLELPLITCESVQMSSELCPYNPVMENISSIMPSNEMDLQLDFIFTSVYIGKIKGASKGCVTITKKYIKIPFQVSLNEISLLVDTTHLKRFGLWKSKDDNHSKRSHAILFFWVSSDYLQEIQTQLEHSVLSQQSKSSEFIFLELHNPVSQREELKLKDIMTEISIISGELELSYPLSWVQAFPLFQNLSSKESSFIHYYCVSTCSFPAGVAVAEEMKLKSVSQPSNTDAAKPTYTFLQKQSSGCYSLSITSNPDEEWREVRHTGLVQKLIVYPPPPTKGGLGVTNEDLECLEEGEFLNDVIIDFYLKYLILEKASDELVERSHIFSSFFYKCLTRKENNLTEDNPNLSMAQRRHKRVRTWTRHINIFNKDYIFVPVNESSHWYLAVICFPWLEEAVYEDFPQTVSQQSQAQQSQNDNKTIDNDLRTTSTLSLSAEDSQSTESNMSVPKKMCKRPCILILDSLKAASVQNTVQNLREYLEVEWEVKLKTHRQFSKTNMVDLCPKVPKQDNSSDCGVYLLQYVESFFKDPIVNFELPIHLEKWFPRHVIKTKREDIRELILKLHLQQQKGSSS

Bcl-2-related protein A1 = target: T3, Bcl-2-related protein A1 (Mus musculus, UniProt Q07440); assay: displacement of Bid BH3 peptide from Bfl-1 – biochemical, fluorescence polarization, FITC-Bid, mouse, primary screen (AID 432)
T3 sequence (Q07440 whole entry): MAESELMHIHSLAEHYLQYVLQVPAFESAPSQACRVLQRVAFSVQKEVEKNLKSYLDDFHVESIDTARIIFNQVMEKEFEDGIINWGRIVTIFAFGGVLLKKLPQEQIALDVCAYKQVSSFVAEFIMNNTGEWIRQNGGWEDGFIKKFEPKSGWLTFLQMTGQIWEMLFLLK

[2] = target: T4, Sentrin-specific protease 6 (Homo sapiens, UniProt Q9GZR1); format: functional;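 note: Luminescence-based dose-response confirmatory assay of SENP6 inhibition, following up an ultra-high-throughput screen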
T4 sequence (Q9GZR1 whole entry): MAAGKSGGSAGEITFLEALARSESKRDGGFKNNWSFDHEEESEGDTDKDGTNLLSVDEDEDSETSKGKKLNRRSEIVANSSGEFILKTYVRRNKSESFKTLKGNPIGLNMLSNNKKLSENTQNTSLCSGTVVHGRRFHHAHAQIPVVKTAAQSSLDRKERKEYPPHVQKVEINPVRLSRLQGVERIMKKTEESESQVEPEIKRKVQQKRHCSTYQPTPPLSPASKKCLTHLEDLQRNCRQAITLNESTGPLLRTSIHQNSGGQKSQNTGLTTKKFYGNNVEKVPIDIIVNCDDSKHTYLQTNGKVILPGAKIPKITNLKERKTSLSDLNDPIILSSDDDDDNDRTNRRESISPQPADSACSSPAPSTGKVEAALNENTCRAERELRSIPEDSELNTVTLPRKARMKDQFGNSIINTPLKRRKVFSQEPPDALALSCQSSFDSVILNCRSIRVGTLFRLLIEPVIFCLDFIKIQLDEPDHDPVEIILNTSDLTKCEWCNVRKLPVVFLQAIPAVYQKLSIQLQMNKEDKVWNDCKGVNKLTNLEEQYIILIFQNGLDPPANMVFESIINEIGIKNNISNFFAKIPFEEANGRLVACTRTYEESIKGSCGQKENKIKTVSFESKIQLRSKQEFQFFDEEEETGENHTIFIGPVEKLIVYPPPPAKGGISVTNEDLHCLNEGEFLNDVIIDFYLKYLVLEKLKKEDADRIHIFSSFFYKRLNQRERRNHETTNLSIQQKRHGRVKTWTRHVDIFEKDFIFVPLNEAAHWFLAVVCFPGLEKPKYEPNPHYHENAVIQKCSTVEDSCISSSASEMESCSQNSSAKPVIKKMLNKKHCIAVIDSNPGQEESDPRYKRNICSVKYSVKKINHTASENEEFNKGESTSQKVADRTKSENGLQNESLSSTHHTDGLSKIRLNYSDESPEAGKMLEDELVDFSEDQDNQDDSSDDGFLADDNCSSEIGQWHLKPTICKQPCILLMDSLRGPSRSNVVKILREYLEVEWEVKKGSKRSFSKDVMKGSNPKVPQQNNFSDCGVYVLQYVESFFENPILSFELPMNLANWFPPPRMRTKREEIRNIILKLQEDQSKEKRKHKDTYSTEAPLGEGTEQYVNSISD

[3] = target: Serine/threonine-protein phosphatase PP1-alpha catalytic subunit (Homo sapiens, UniProt P62136); assay: inhibition of protein phosphatase 1 activity – biochemical, fluorescence, dose response (AID 2394)
Chain of Serine/threonine-protein phosphatase PP1-alpha catalytic subunit (P62136 whole entry): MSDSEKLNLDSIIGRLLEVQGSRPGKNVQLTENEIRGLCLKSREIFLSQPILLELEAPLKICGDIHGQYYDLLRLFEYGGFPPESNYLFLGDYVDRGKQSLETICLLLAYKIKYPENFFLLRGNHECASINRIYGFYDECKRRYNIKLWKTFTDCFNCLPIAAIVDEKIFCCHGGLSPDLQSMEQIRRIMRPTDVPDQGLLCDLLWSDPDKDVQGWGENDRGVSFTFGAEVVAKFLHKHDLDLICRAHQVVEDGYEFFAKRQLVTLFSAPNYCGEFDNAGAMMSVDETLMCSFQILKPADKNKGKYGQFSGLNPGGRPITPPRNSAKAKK

Structure (SMILES)	EC50 (Mu-type opioid receptor)	IC50 (Caspase-3)	IC50 (SUMO E1/E2)	IC50 [1]	IC50 (Bcl-2-related protein A1)	IC50 [2]	IC50 [3]
CCCCCCCCCCOC(=O)C[n+]1c(COc2ccccc2C)n(C)c2ccccc21	> 92.5 µM (inactive)	–	–	–	–	–	–
Oc1nc(Nc2ccccc2)cc2ccccc12	–	1.02 µM (active)	6.32 µM (active)	0.75 µM (active)	> 100 µM (not active)	0.345 µM (active)	> 67 µM (not active)
